Reference: US20160015064A1, “COMPOUNDS, COMPOSITIONS, AND METHODS FOR MODULATING SWEET TASTE” (CHROMOCELL CORPORATION, priority 2013, published 2016)

Test: Beverage emulsion delivery systems, physical stability
Assay type: physicochemical
Conditions: NEOBEE® M-5 oil phase with Q-NATURALE®, no weighting agent
Procedure: Utilizing the triacetin and NEOBEE® M-5 oil solutions described in Example 6, emulsion systems were prepared to develop a clear delivery system. A suitable emulsion system would need to have a particle size of under 100 nanometers. A series of trials were conducted in which the triacetin and NEOBEE® M-5 oil solutions were combined with a variety of matrices including preserved water (i.e., water comprising 500 ppm sodium benzoate, 400 ppm potassium sorbate and 1000 ppm citric acid), Q-[…]®, lecithin, lyso-lecithin, and citrus oil. Pre-homogenization utilizing a Silverson High Shear mixer and final homogenization utilizing a high pressure homogenizer at 20,000 psi (up to 10 passes) only achieved a particle size reduction to 146 nanometers. The emulsions were stable in beverage but were opaque. […] Therefore incorporating the compounds into a cloudy beverage emulsion or homogenizing it into a cloudy citrus (orange juice) product may be beneficial. Without being bound by theory, the opacity of the beverage would, in effect, shield the compound from the detriment of light.
For a standard beverage emulsion, the compounds need to be dissolved in the oil phase of the emulsion. Unfortunately, the compounds were mostly insoluble in citrus oil (orange oil 5×). […]

COc1ccc(C2CC(=O)c3c(O)cccc3O2)cc1O (single isomer, unassigned) [Compound 3, 5-hydroxy-2-(3-hydroxy-4-methoxyphenyl)chroman-4-one]
Physical stability of emulsion: physically stable
